Entries after “also recorded” stand apart in the source; their conditions may differ.
Tests used:
Type in all cases: cell-based
Jurkat cells = assay: Confocal microscopic analysis of intracellular translocation of synthetic peptides in Jurkat cells
Experimental: (§1) Three kinds of cells were used for incorporating the peptides: CHO cells (ATCC NO. CCL-61), HeLa cells, and Jurkat cells. 10^4 CHO cells and HeLa cells and 10^5 Jurkat cells were separately inoculated to a 96-well plate, and cultured for 2 or 3 days. Subsequently, when the cells became confluent, each peptide solution was added to each type of cell, and the cells were incubated for 1 hour. After each type of cell was washed with PBS three times, 100 μL of 0.25% trypsin-1 mM EDTA solution was added, and trypsinization was performed at room temperature for 5 minutes. After 400 μL of PBS (10% FCS) was added to neutralize the trypsin, the cells were washed with 1 mL of HBSS (Hanks' Balanced Salt Solution/produced by Invitrogen) three times. After the washing, the cells were suspended in 50 μL of HBSS and analyzed using a confocal microscope. Measurements and analysis were performed using a confocal differential interference laser microscope system (Bio-Rad, Radience2100/Green He-Ne, 488 nm, microscope: Nikon, ECLIPSE E600).
In Jurkat cells as well, intracellular translocation experiments of synthetic peptides of modified PTD sequences were performed by confocal microscopic analysis.

CHO cells = assay: Test of translocation of fluorescence-labeled peptides into CHO cells (FACS and confocal microscopic analysis); conditions: for contribution of the alanine-substituted amino acid to the intracellular translocation: comprehensive alanine substitution on the basis of KSH1-1; for intracellular translocation compared with KSH1 (in words): 50 μM, 25 μM, 12.5 μM and 6.5 μM
Experimental: Each peptide solution, adjusted to 1 mM, was diluted with a medium to three levels, 100 μM, 50 μM, and 25 μM, and added to cells. Three kinds of cells were used: CHO cells, HeLa cells, and Jurkat cells. After each peptide solution was added, the cells were incubated for 1 hour. After the cells were washed with PBS three times, 100 μL of 0.25% trypsin-1 mM EDTA solution was added, and trypsinization was performed at room temperature for 5 minutes. After 400 μL of PBS (10% FCS) was added to stop the trypsinization, the cells were washed with 1 mL of HBSS three times. After the washing, the cells were suspended in 500 μL of PBS (10% FCS) and subjected to flowcytometry (hereinafter, FACS) analysis using FACS Calibur (Becton Dickinson).
Each peptide was synthesized, fluorescently labeled, purified and dissolved in the same manner as Example 1-2, a test of translocation into CHO cells was performed, and an evaluation was performed by confocal microscopic analysis and FACS. FACS analysis was performed in the same manner as Example 1-3. For the KSH1 peptide and modified PTD sequences, i.e., KSH1-1 to KSH1-9 peptides (SEQ ID NOS:1 to 9 in the sequence listing), fluorescence intensities determined by FACS analysis are shown in FIG. 6. The peptide addition concentrations were 50 μM, 25 μM, 12.5 μM and 6.5 μM.
To determine which amino acids are important to the intracellular translocation, comprehensive alanine substitution was performed on the basis of KSH1-1 to design KSH1-11 (SEQ ID NO:11 in the sequence listing) to KSH1-23 (SEQ ID NO:22 in the sequence listing) and KSH1-35 (SEQ ID NO:32 in the sequence listing) (FIG. 7). Each peptide was synthesized, fluorescently labeled, purified and dissolved in the same manner as Example 1-2, a test of translocation into CHO cells was performed, and an evaluation was performed by confocal microscopic analysis and FACS. FACS analysis was performed in the same manner as Example 1-3. For KSH1 and modified PTD sequences, i.e., KSH11-11 to 23 and KSH1-35, fluorescence intensities determined by FACS analysis are shown in FIG. 8. The peptide addition concentrations were 50 μM, 25 μM, 12.5 μM and 6.5 μM.
Each peptide was synthesized, fluorescently labeled, purified and dissolved in the same manner as Example 1-2, a test of translocation into CHO cells was performed, and an evaluation was performed by confocal microscopic analysis and FACS analysis. FACS analysis was performed in the same manner as Example 1-3. For KSH1 and modified PTD sequences, i.e., KSH11-24 to 1-26 and KSH1-28 to 1-30, fluorescence intensities determined by FACS analysis are shown in FIG. 10. The peptide addition concentrations were 50 μM, 25 μM, 12.5 μM and 6.5 μM.
Each peptide was synthesized, fluorescently labeled, purified and dissolved in the same manner as Example 1-2, a test of translocation into CHO cells was performed, and an evaluation was performed by confocal microscopic analysis and FACS analysis. FACS analysis was performed in the same manner as Example 1-3. For KSH1 and modified PTD sequences, i.e., KSH1-27, KSH1-33, KSH1-34 and KSH1-36, fluorescence intensities determined by FACS analysis are shown in FIG. 12. The peptide addition concentrations were 50 μM, 25 μM, 12.5 μM and 6.5 μM.
Each peptide was synthesized, fluorescently labeled, purified and dissolved in the same manner as Example 1-2, and an intracellular translocation test in CHO cells was performed by FACS analysis. Used for positive control were a PTD sequence derived from HIV TAT ([…] in the sequence listing) and the KSH1 peptide; used for negative control was a peptide sequence lacking intracellular transferability (SEQ ID NO:57 in the sequence listing).

HeLa cells = assay: Confocal microscopic analysis of intracellular translocation of synthetic peptides in HeLa cells; conditions: confocal microscopic analysis
Experimental: as §1
In HeLa cells as with CHO cells, intracellular translocation experiments of synthetic peptides of modified PTD sequences were performed by confocal microscopic analysis.

[1] = tested on: CHO cells, HeLa cells, and Jurkat cells; assay: Confocal microscopic analysis of intracellular translocation of fluorescence-labeled peptides; conditions: for intracellular translocation compared with KSH2: FITC-labeled peptide; for capability of intracellular translocation compared with KSH2: FITC-labeled peptides in CHO, HeLa, and Jurkat cells
Description: With the PTD derived from HIV TAT protein shown by SEQ ID NO:50 in the sequence listing as the positive control (in FIG. 1 to FIG. 3, denoted by “Positive” or “TAT”), and a mutant of the TAT-derived PTD shown by SEQ ID NO:51 in the sequence listing, reported by Ulo Langel et al. (Cell-Penetrating Peptides: Processes and Applications, Series: Pharmacology and Toxicology: Basic and Clinical Aspects Volume:3, 2002), as the negative control (in FIG. 1, denoted by “Negative”), the peptides of the 11 sequences selected in Example 1-1 were evaluated.
The peptides of the 11 sequences selected in Example 1-1 were synthesized by the solid phase method, and fluorescently labeled by coupling 5,6-Carboxyfluorescein to the N-terminus of each peptide. Furthermore, the peptides were purified by HPLC to obtain a purity of 70% or more. Subsequently, each fluorescently labeled peptide was dissolved in 10% Dimethyl Sulfoxide (DMSO) to obtain 1 mM (hereinafter referred to as peptide solution).
as §1
Of the novel PTD sequences found in Example 5, the KSH2 peptide is highly capable of translocating eGFP into cells; an attempt was made to modify the KSH2 peptide. The KSH2-1 to KSH2-4 peptides (SEQ ID NOS:44 to 47 in the sequence listing) were synthesized, fluorescently labeled, purified and dissolved in the same manner as Example 1-2, a test of translocation into CHO cells was performed, and confocal microscopic analysis was performed.
First, two cases were examined: two cysteines were substituted with alanine (KSH2-1) or with tryptophan (KSH2-2). FITC-labeled peptides were synthesized, and their intracellular translocation efficiencies were examined using CHO, HeLa, and Jurkat cells (FIG. 21, the peptide addition concentration was 50 μM, 25 μM or 12.5 μM).

**Q.** Which “intracellular translocation in Jurkat cells as compared to that of SEQ ID NO:37” value (Jurkat cells) does the source give for “KSH1-14: alanine substitution form of KSH1-1 (RLWARWYSPTTRRYG; Designed peptide to act as PTD(Protein Transduction Domain))” here?
**A.** Its value is “better intracellular translocation”.

**Q.** And the “contribution of the alanine-substituted amino acid to the intracellular translocation” value (“contribution” below) (CHO cells)?
**A.** The value was “minor contribution”.

**Q.** With “KSH1-8: tryptophan cluster form with lysine substituted with arginine (RLWMRWYSPWTRRYG; Designed peptide to act as PTD(Protein Transduction Domain))” as the substance, how does the “intracellular translocation in Jurkat cells as compared to that of SEQ ID NO:37” value (Jurkat cells) read?
**A.** Its value is “better intracellular translocation”.

**Q.** And the “intracellular translocation compared with KSH1 (in words)” value (CHO cells)?
**A.** The value was “clearly accentuated intracellular translocation”.

**Q.** And the “intracellular translocation (in words)” value (CHO cells; at 25 μM or less)?
**A.** The value was “accentuated”.

**Q.** What about the “intracellular translocation (in words)” value (CHO cells; at 50 μM) of the same substance?
**A.** The value was “decreased”.

**Q.** What about the “intracellular translocation in HeLa cells (modified peptides with better translocation)” value (HeLa cells) of the same substance?
**A.** The value was “better intracellular translocation”.

**Q.** Which “intracellular translocation in HeLa cells compared with CHO cells” value (HeLa cells) does the source give for “KSH1-16: alanine substitution form of KSH1-1 (RLWMRAYSPTTRRYG; Designed peptide to act as PTD(Protein Transduction Domain))” here?
**A.** The value was “slightly higher”.

**Q.** For “KSH2-1: KSH2 with two cysteines substituted with alanine (WKARRQAFRVLHHWN; Designed peptide to act as PTD(Protein Transduction Domain))”, which “intracellular translocation compared with KSH2” value ([1]; 25 μM) is on record?
**A.** Its value is “remarkably decreased intracellular translocation”.

**Q.** And the “intracellular translocation compared with KSH2” value ([1]; 50 μM)?
**A.** The value was “higher intracellular translocation than KSH2”.

**Q.** How did the “intracellular translocation in Jurkat cells as compared to that of SEQ ID NO:37” value (Jurkat cells) turn out when “KSH1-12: alanine substitution form of KSH1-1 (RAWMRWYSPTTRRYG; Designed peptide to act as PTD(Protein Transduction Domain))” was run?
**A.** The value was “better intracellular translocation”.

**Q.** What about the “contribution” value (CHO cells) of the same substance?
**A.** Its value is “minor contribution”.

**Q.** For “KSH1-21: alanine substitution form of KSH1-1 (RLWMRWYSPTARRYG; Designed peptide to act as PTD(Protein Transduction Domain))”, which “intracellular translocation in Jurkat cells as compared to that of SEQ ID NO:37” value (Jurkat cells) is on record?
**A.** The value was “better intracellular translocation”.

**Q.** Which results are given for “KSH1-18: alanine substitution form of KSH1-1 (8th serine) (RLWMRWYAPTTRRYG; Designed peptide to act as PTD(Protein Transduction Domain))”?
**A.** intracellular translocation in Jurkat cells as compared to that of SEQ ID NO:37 (Jurkat cells): better intracellular translocation; intracellular translocation compared with KSH1 (in words) (CHO cells): clearly accentuated intracellular translocation; intracellular translocation in HeLa cells (modified peptides with better translocation) (HeLa cells): better intracellular translocation

**Q.** With “KSH2-3: KSH2 with one of the two cysteines substituted with alanine (WKARRQCFRVLHHWN; Designed peptide to act as PTD(Protein Transduction Domain))” as the substance, how does the “capability of intracellular translocation compared with KSH2” value [1] read?
**A.** Its value is “accentuated”.

**Q.** How did the “capability of intracellular translocation compared with KSH2” value [1] turn out when “KSH2-4: KSH2 with one of the two cysteines substituted with alanine (WKCRRQAFRVLHHWN; Designed peptide to act as PTD(Protein Transduction Domain))” was run?
**A.** The value was “accentuated”.

**Q.** Which “intracellular translocation in Jurkat cells as compared to that of SEQ ID NO:37” value (Jurkat cells) does the source give for “KSH1-20: alanine substitution form of KSH1-1 (RLWMRWYSPATRRYG; Designed peptide to act as PTD(Protein Transduction Domain))” here?
**A.** Its value is “better intracellular translocation”.

**Q.** What about the “contribution” value (CHO cells) of the same substance?
**A.** The value was “minor contribution”.

**Q.** What about the “intracellular translocation in HeLa cells (modified peptides with better translocation)” value (HeLa cells) of the same substance?
**A.** The value was “better intracellular translocation”.

**Q.** Which results are given for “KSH1-9: modified KSH1 with the number of tryptophans increased to 4 (RLWMRWYSPWTRRWG; Designed peptide to act as PTD(Protein Transduction Domain))”?
**A.** intracellular translocation in Jurkat cells as compared to that of SEQ ID NO:37 (Jurkat cells): better intracellular translocation; intracellular translocation compared with KSH1 (in words) (CHO cells): the same tendency as KSH1-8; also recorded: clearly accentuated intracellular translocation; intracellular translocation in HeLa cells (modified peptides with better translocation) (HeLa cells): better intracellular translocation

**Q.** How did the “intracellular translocation compared with KSH2” value ([1]; 12.5 μM) turn out when “KSH2-2: KSH2 with two cysteines substituted with tryptophan (WKWRRQWFRVLHHWN; Designed peptide to act as PTD(Protein Transduction Domain))” was run?
**A.** Its value is “higher intracellular translocation efficiency than KSH2”.

**Q.** And the “intracellular translocation compared with KSH2” value ([1]; 25 μM)?
**A.** The value was “higher intracellular translocation efficiency than KSH2”.

**Q.** And the “intracellular translocation compared with KSH2” value ([1]; 50 μM)?
**A.** The value was “higher intracellular translocation than KSH2”.

From US8691528B2, “Cell penetrating peptide” (Mitsubishi Tanabe Pharma Corporation, priority 2005, dated 2014)
